Among the data in patent publication US20060270631A1, “Methods for the treatment and prevention of angiogenic diseases” (priority 2005, published 2006) are IC50 values, retold here.

For the assay, the system named is endogenous SK. In words: Cellular S1P formation assay in HFLS-RA cells. It counts as cell-based, human. As to conditions: read-out: drug concentration that decreases S1P formation by 50%. On the procedure:
Cellular S1P formation assay. Cells were grown to confluency in 24-well tissue culture plates and serum-starved for 24 hours as described above. Cells were then treated with 1% DMSO (as the drug vehicle), 20 μM dimethylsphingosine, or the indicated concentration of an SK inhibitor for 4 hours. The cells were then incubated with [^3H]sphingosine for 15 minutes, and the formation of [^3H]S1P was measured as previously described (French et al., Cancer Res 63: 5962 (2003)). In some assays, the cells were serum-starved for 24 hours and then treated with VEGF (50 ng/mL) alone or in the presence of an SK inhibitor for an additional 12 hours. [^3 H]Sphingosine was then added for 15 minutes, and its conversion to [^3H]S1P was measured as indicated above.
A cell-based assay in which the phosphorylation of exogenously added [^3H]sphingosine to [^3H]S1P by endogenous SK can be quantified (French et al., Cancer Res 63: 5962 (2003)) was used to evaluate the effects of test compounds on the activity of SK in intact cells. In this assay, cells are incubated with [^3 H]sphingosine for an appropriate period of time, and then [^3H]sphingosine and [^3H]S1P (formed by endogenous SK activity) are separated by extraction and levels of both species are determined by scintillation counting. […] Similarly, the enzymatic activity of SK in bovine RECs, and its sensitivity to SK inhibitors were assessed. […]

Consider `Oc1ccc(Nc2nc(-c3ccc(Cl)cc3)cs2)cc1` [Compound II], for which the IC50 is 190 nM.
